Results reported in patent US20240024240A1 (priority 2020, published 2024).

Experiment: Sonication of magnesium oxide nanopowder with different ligands (functionalization, dispersion)
Format: physicochemical
Protocol: Different capping ligands were selected for the functionalization of magnesium oxide nanoparticles (see FIG. 5). This method is applicable to ligands whose anchoring groups forms stable magnesium complexes such as catecholates, salicylates, phosphates and phosphonates. Even if the affinity of each individual group for the particle surface is low, the multiplicity of anchoring groups provides a strong adsorption. For example, poly-aspartic and poly-glutamic acids were tested for the functionalization of magnesium oxide nanoparticles. In this procedure, the capping ligands were sonicated with the nanoparticles until a complete dispersion was obtained. The stability of the dispersion was evaluated by the absorption spectra of the obtained mixture.
As a starting point for the optimization of the procedure, the magnesium oxide nanoparticles (200 mg) were dispersed in 25 mL of 1% capping agent with continuous stirring at different times. The concentration of nanoparticles and capping agent in the dispersion mixture together with the incubation temperature was optimized to increase the stability of the dispersed nanoparticles. The excess of capping agent was removed by centrifugation and washing with water. […]

NCCP(=O)(O)O [2-aminoethylphosphonic acid]
effect of ligand on magnesium oxide nanomaterial on sonication (magnesium oxide nanopowder sonicated in the presence of the ligand): dissolved the nanomaterial

NCCCC(O)(P(=O)(O)O)P(=O)(O)O [alendronate]
dispersion of magnesium oxide nanomaterial with ligand (preliminary results, FIG. 7): good results
